Laboratory results published in patent publication US20250288683A1, “TETRAHYDROISOQUINOLINE HETEROBIFUNCTIONAL BCL-XL DEGRADERS” (Treeline Biosciences, Inc., priority 2022, published 2025).

Each molecule was assayed against T1, Human BCL-XL protein (N-terminal HiBiT tagged BCL-XL in HT1080 cells) (Homo sapiens, UniProt Q07817) (assay: HiBiT based degradation assay). Conditions: HT1080 cells expressing N-terminal HiBiT tagged BCL-XL, 6 h, normalized with DMSO control.
T1 construct: expressed in transfected cells; host or cells: HT-1080 (ATCC CCL-121), stably transduced with lentivirus pLV-UBC-N-HiBiT-BCL-XL-PGK-puro and selected with puromycin
Type: cell-based

T1 sequence (Q07817 whole entry): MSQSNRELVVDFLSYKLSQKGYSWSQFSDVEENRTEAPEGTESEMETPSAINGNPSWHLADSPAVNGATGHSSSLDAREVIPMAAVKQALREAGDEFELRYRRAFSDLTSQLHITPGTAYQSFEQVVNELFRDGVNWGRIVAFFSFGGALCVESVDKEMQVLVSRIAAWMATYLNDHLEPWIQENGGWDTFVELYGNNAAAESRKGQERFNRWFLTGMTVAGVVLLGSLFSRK

SMILES | Ymin (6 h)
Cc1ncsc1-c1ccc([C@H](C)NC(=O)[C@@H]2C[C@@H](O)CN2C(=O)[C@@H](NC(=O)CCCCCCCCCNC(=O)c2nc(N3CCc4cccc(C(=O)Nc5nc6ccccc6s5)c4C3)ccc2-c2cnn(Cc3ccccc3)c2C)C(C)(C)C)cc1 [Compound 110a, N-(benzo[d]thiazol-2-yl)-2-(5-(1-benzyl-5-methyl-1H-pyrazol-4-yl)-6-((10-(((S)-1-((2S,4R)-4-hydroxy-2-(((S)-1-(4-(4-methylthiazol-5-yl)phenyl)ethyl)carbamoyl)pyrrolidin-1-yl)-3,3-dimethyl-1-oxobutan-2-yl)amino)-10-oxodecyl)carbamoyl)pyridin-2-yl)-1,2,3,4-tetrahydroisoquinoline-8-carboxamide] | A (Ymin < 50%)
Cc1ncsc1-c1ccc([C@H](C)NC(=O)[C@@H]2C[C@@H](O)CN2C(=O)[C@@H](NC(=O)CCCCCOc2cccc(-c3ccc(N4CCc5cccc(C(=O)Nc6nc7ccccc7s6)c5C4)nc3C(=O)O)c2C)C(C)(C)C)cc1 [Compound 105a, 6-(8-(Benzo[d]thiazol-2-ylcarbamoyl)-3,4-dihydroisoquinolin-2(1H)-yl)-3-(3-((6-(((S)-1-((2S,4R)-4-hydroxy-2-(((S)-1-(4-(4-methylthiazol-5-yl)phenyl)ethyl)carbamoyl)pyrrolidin-1-yl)-3,3-dimethyl-1-oxobutan-2-yl)amino)-6-oxohexyl)oxy)-2-methylphenyl)picolinic acid] | A (Ymin < 50%)

Same assay, conditions: HT1080 cells expressing N-terminal HiBiT tagged BCL-XL, 24 h, normalized with DMSO control

SMILES | Ymin (24 h)
CC(=O)O[C@@H]1C[C@@H](C(=O)N[C@@H](C)c2ccc(-c3scnc3C)cc2)N(C(=O)[C@@H](NC(=O)CCCc2ccc(Oc3cccc(-c4ccc(N5CCc6cccc(C(=O)Nc7nc8ccccc8s7)c6C5)nc4C(=O)O)c3C)cc2)C(C)(C)C)C1 [Compound 118a, 3-[3-[4-[4-[[(1S)-1-[(2S,4R)-4-acetoxy-2-[[(1S)-1-[4-(4-methylthiazol-5-yl)phenyl]ethyl]carbamoyl]pyrrolidine-1-carbonyl]-2,2-dimethyl-propyl]amino]-4-oxo-butyl]phenoxy]-2-methyl-phenyl]-6-[8-(1,3-benzothiazol-2-ylcarbamoyl)-3,4-dihydro-1H-isoquinolin-2-yl]pyridine-2-carboxylic acid] | B (50% ≤ Ymin < 70%)
Cc1ncsc1-c1ccc(CNC(=O)[C@@H]2C[C@@H](O)CN2C(=O)[C@@H](NC(=O)C2(F)CC2)C(C)(C)SCCCCCCCCCOc2cccc(-c3ccc(N4CCc5cccc(C(=O)Nc6nc7ccccc7s6)c5C4)nc3C(=O)O)c2C)cc1 [Compound 141a] | A (Ymin < 50%)
Cc1ncsc1-c1ccc([C@H](C)NC(=O)[C@@H]2C[C@@H](O)CN2C(=O)[C@@H](NC(=O)CCCCCOc2cccc(-c3ccc(N4CCc5cccc(C(=O)Nc6nc7ccccc7s6)c5C4)nc3C(=O)O)c2C)C(C)(C)C)cc1 [Compound 105a, 6-(8-(Benzo[d]thiazol-2-ylcarbamoyl)-3,4-dihydroisoquinolin-2(1H)-yl)-3-(3-((6-(((S)-1-((2S,4R)-4-hydroxy-2-(((S)-1-(4-(4-methylthiazol-5-yl)phenyl)ethyl)carbamoyl)pyrrolidin-1-yl)-3,3-dimethyl-1-oxobutan-2-yl)amino)-6-oxohexyl)oxy)-2-methylphenyl)picolinic acid] | A (Ymin < 50%)
Cc1ncsc1-c1ccc([C@H](C)NC(=O)[C@@H]2C[C@@H](O)CN2C(=O)[C@@H](NC(=O)CN2CCC(CCCOc3cccc(-c4ccc(N5CCc6cccc(C(=O)Nc7nc8ccccc8s7)c6C5)nc4C(=O)O)c3C)CC2)C(C)(C)C)cc1 [Compound 124a, 6-[8-(1,3-benzothiazol-2-ylcarbamoyl)-3,4-dihydro-1H-isoquinolin-2-yl]-3-[3-[3-[1-[2-[[(1S)-1-[(2S,4R)-4-hydroxy-2-[[(1S)-1-[4-(4-methylthiazol-5-yl)phenyl]ethyl]carbamoyl]pyrrolidine-1-carbonyl]-2,2-dimethyl-propyl]amino]-2-oxo-ethyl]-4-piperidyl]propoxy]-2-methyl-phenyl]pyridine-2-carboxylic acid] | A (Ymin < 50%)
Cc1ncsc1-c1ccc([C@H](C)NC(=O)[C@@H]2C[C@@H](O)CN2C(=O)[C@@H](NC(=O)C[C@H]2CC[C@H](Oc3cccc(-c4ccc(N5CCc6cccc(C(=O)Nc7nc8ccccc8s7)c6C5)nc4C(=O)O)c3C)CC2)C(C)(C)C)cc1 [Compound 116a, 6-(8-(benzo[d]thiazol-2-ylcarbamoyl)-3,4-dihydroisoquinolin-2 (1H)-yl)-3-(3-(((1S,4r)-4-(2-(((S)-1-((2S,4R)-4-hydroxy-2-(((S)-1-(4-(4-methylthiazol-5-yl)phenyl)ethyl)carbamoyl)pyrrolidin-1-yl)-3,3-dimethyl-1-oxobutan-2-yl)amino)-2-oxoethyl)cyclohexyl)oxy)-2-methylphenyl)picolinic acid] | A (Ymin < 50%)
